“Also recorded” adds a separate entry of the source.

Series [1] concerns DA.Ncf1^DA rats. Kind of series: Pristane induced arthritis (PIA) in DA.Ncf1^DA rats. It counts as in vivo, Rat (Rattus norvegicus). The settings on record: for severity of PIA, therapeutic effect: 100 μl subcutaneous injections in the neck at day 8 and 10 after arthritis induction. How it is done:
Treatments with compound 1 (phytol) or compound 5 (phytyl acetate) were administered to DA.Ncf1^DA rats as 100 μl subcutaneous injections in the neck at day 8 and 10 after arthritis induction (untreated control (◯), compound 1 (phytol) (♦) and compound 5 (phytyl acetate) (▴)) (FIG. 9).
Treatments with compound 2 (farnesol) or compound 4 (farnesylacetate) were administered to DA.Ncf1^DA rats as 100 μl subcutaneous injections in the neck at day 8 and 10 after arthritis induction, (untreated control (◯), compound 2 (farnesol) (▪) and compound 4 (farnesylacetate) (▴)) (FIG. 11).
Treatments with compound 1 (phytol), compound 6 (di-hydro-phytol, compound 5 (phytyl acetate), or compound 7 (di-hydro-phytyl acetate were administered to DA.Ncf1^DA rats as 100 μl subcutaneous injections in the neck at day 8 and 10 after arthritis induction, (untreated control (◯), compound 1 (phytol) (♦), compound 6 (di-hydro-phytol (▪), compound 5 (phytyl acetate) (▴) or compound 7 (di-hydro-phytyl acetate (●)) (FIG. 12).
Treatments of DA.Ncf1^DA rats with compound 1 (phytol) mixed in the food for continuous uptake compared with Omega3 fatty acids, (untreated control (◯), Omega3 fatty acid (□), phytol 1% daily (♦), phytol 1% every 2'nd day (▴), or phytol 1% initiated day 7 after arthritis induction (▪)) (FIG. 13).
Treatments of DA.Ncf1^DA rats with compound 5 (phytyl acetate) mixed in the food for daily uptake, (untreated control (◯), compound 1 (phytol) 1% daily (♦), or compound 5 (phytyl acetate) 1% daily (▴)) (FIG. 14).
Treatments with compound 1 (phytol) at 1.6 or 2.3 g/kg/day administered to DA.Ncf1^DA rats by oral gavage given by dosing every second day with compound 1 (phytol) […] (♦), compound 1 (phytol) […] (▴) or untreated control (◯).
Treatments of DA.Ncf1^DA rats with compound 1 (phytol) or compound 9 (isophytol) mixed in the food for continuous uptake compared with fenofibrate, (compound 1 (phytol) 500 mg/kg/day (♦), compound 9 (isophytol) 500 mg/kg/day (▴), or fenofibrate 100 mg/kg/day (□). Untreated control (◯).) (see FIG. 17).

The test system of series [2] is HL-60 cells. In words: Oxidative burst assay of granulocytes in vitro (isoluminol, extra-cellular ROS). Particulars: HL-60 differentiated to granulocytes, 50 minutes, 37° C.
Protocol: The human myeloma cell line HL-60 (ATCC, CCI-240) was cultured in D-MEM (Gibco, Paisley, UK) complemented with 10% fetal calf serum and Penicillin-Streptomycin. […] Before assaying the cells were washed and resuspended in PBS to a concentration of 10^7 cells/ml.
Briefly, 5 μl of resuspended oils were added into 96-well plates containing 5×10^5 cells/well in a total volume of 200 μl PBS/well (final concentration isoluminol 50 μg/ml; Sigma Aldrich) and horse radish peroxidase (type II 2,5 U/ml; Sigma Aldrich). Samples were gently mixed and the data collection was initiated immediately. Extra-cellular ROS production was followed at 37° C. as produced luminescence signal (FluoStar Optima, BMG Labtechnologies, Offenburg, Germany) and presented as maximal relative signal during a measurement period of 50 minutes.
The cells were differentiated to granulocytes by culture in presence of 1,25% dimethylsulfoxide (DMSO; Sigma Aldrich Inc., Milwaukee, Wis.) for six days.
Series [3] can be described thus: Arthritogenicity / arthritis effect (general statement). In kind it is in vivo. Particulars: general statement in Example 3.

In the case of `CC(=O)OC/C=C(\C)CC/C=C(\C)CCC=C(C)C` [compound 4, Acetic acid 3,7,11-trimethyl-dodeca-2,6,10-trienyl ester], the “severity of PIA, therapeutic effect” value in series [1] is “therapeutic effect comparable to the therapeutic effect of the un-derivatized compound 2”. Take `CC(=O)OC/C=C(\C)CCCC(C)CCCC(C)CCCC(C)C` (stereo not drawn) [compound 5, Acetic acid 3,7,11,15-tetra-metyl-hexadec-2-enyl-ester]: in series [1], the “severity of PIA, therapeutic effect” value is listed as “therapeutic effect comparable to the therapeutic effect of the un-derivatized compound 1; also recorded: therapeutic effects”. The “severity of PIA, oral administration in food 1% daily” value in series [1] (mixed in the food for daily uptake, 1% daily) is on record as “equally effective as oral treatment with compound 1 (phytol) in reducing the severity of arthritis”. Consider `C=CC(C)(O)CCCC(C)CCCC(C)CCCC(C)C` (stereo not drawn) [compound 9, 3,7,11,15-Tetramethyl-1-hexadecen-3-ol], for which, in series [2], the “Extra-cellular ROS production (maximal relative luminescence signal)” value is “strong ROS production”. Besides, the “severity of PIA, oral administration in food 500 mg/kg/day” value in series [1] (mixed in the food for continuous uptake, 500 mg/kg/day) was “reduced the severity of arthritis”. On to `CC(=O)OCCC(C)CCCC(C)CCCC(C)CCCC(C)C` (stereo not drawn) [compound 7, Acetic acid 3,7,11,15-tetramethyl-hexadecyl ester], for which the “severity of PIA, therapeutic effect” value in series [1] was “therapeutic effect comparable to the therapeutic effects of compound 1 and compound 5”. As to `CC(C)OC(=O)C(C)(C)Oc1ccc(C(=O)c2ccc(Cl)cc2)cc1` [fenofibrate, propan-2-yl 2-[4-(4-chlorobenzoyl)phenoxy]-2-methyl-propanoate, reference compound], the “severity of PIA, oral fenofibrate 100 mg/kg/day” value in series [1] (100 mg/kg/day) was “no effect on the severity of arthritis”. `CC(C)CCCC(C)CCCC(C)CCCC(C)CCO` (stereo not drawn) [compound 6, 3,7,11,15-Tetramethyl-hexadecan-1-ol]: the “severity of PIA, therapeutic effect” value in series [1] is “therapeutic effect comparable to the therapeutic effects of compound 1 and compound 5”.

On to `CC(C)=CCC/C(C)=C/CC/C(C)=C/CO` [compound 2, 3,7,11-Trimethyl-2,6,10-dodecatrien-1-ol], for which, in series [2], the “Extra-cellular ROS production (maximal relative luminescence signal)” value is given as “strong ROS production”. Moreover, in series [3], the arthritis ameliorating effects entry is “arthritis ameliorating effects” and the arthritogenicity entry was “non arthritogenic”. Further, in series [1], the “severity of PIA, therapeutic effect” value was “therapeutic effect”. In the case of `CC(C)=CCC/C(C)=C/CC/C(C)=C/CC/C(C)=C/CO` [compound 3, 3,7,11,15-Tetramethyl-hexada-2,6,10,14-tetraen-1-ol], in series [2], the “Extra-cellular ROS production (maximal relative luminescence signal)” value is “strong ROS production”. Also, in series [3], the arthritis ameliorating effects entry was “arthritis ameliorating effects” and the arthritogenicity result was “non arthritogenic”.
